# Where two headings read alike, the source gives them in different places.
# How the values were obtained:
# [1] = tested on: IL-6/STAT3 signaling pathway; set-up: method as in PMID 22855270; details: previously reported value; read-out: IC50 against STAT3 signaling; cited from earlier work
# [2] = target: IL-6/STAT3 signaling pathway; test: STAT3-dependent luciferase reporter assay; format: cell-based, human; details: for IC50: HepG2/STAT3 luciferase cells, compound 1 h then IL-6 10 ng/mL 5.5 h
# Description: HepG2/STAT3 cells, a gift of Prof. Xinyuan Fu (National University of Singapore, Singapore), were the human hepatocellular carcinoma HepG2 cells stably transfected with a STAT3-responsive firefly luciferase reporter plasmid. Briefly, three tandem repeats of the oligonucleotide […], which contains the DNA binding sequence of STAT3, was artificially synthesized and introduced into the luciferase reporter vector pGL2-P plasmid (Promega). The pGL2-P/STAT3 construct was confirmed by sequencing. The luciferase reporter plasmid pGL2-P/STAT3 was used to transfect HepG2 cells using Lipofectamine 2000 (Invitrogen). The stably transfected HepG2 cell line with the pGL2-P/STAT3 plasmid was obtained by screening for G418-resistant cell clones.
# The inhibitory activities on IL-6/STAT3 signaling were determined by STAT3-dependent luciferase reporter assay described in our previously report. HepG2/STAT3 cells were HepG2 cells stably transfected with a STAT3-responsive firefly luciferase reporter plasmid. The expression level of luciferase reached its peak value after 5–6 h stimulation by interleukin (IL)-6. HepG2/STAT3 cells (2 × 10^4 per well) were seeded into 96-well cell culture microplates (Corning) and allowed to grow for 48 h and then treated with compounds 1–8 (0, 0.00001, 0.0001, 0.001, 0.01, 0.1, 1, 4, 20 μM) for 1 h followed by stimulation with 10 ng/mL interleukin (IL)-6 (BD Biosciences) for 5.5 h (cells were treated with compounds 1–8 for 6.5h). Luciferase activities were measured with the Promega luciferase kit (# E4550) according to the manufacturer’s instruction. All luciferase assay experiments were carried out at least thrice in triplicate to minimize the difference caused by cell number. The JAK2/STAT3 inhibitor pyridone 6 (Merck Chemical) was used as a positive control.
# Li-7 cells = test: MTT cell viability assay, Li-7; format: cell-based; details: Homo sapiens, Li-7, 72 h, read-out: IC50, cell growth/viability
# Protocol: (§1) Human hepatocellular carcinoma Hep3B and HepG2 were obtained from the American Type Culture Collection. Human hepatocellular carcinoma Huh-7, Li-7 and SK-HEP-1 cells were kindly provided by Stem Cell Bank, Chinese Academy of Sciences. HepG2/STAT3 cells were cultured in α-MEM (Life Technologies, USA) with 10% FCS (Life Technologies, USA) and the rest cell lines were cultured in DMEM (Life Technologies) with 10% FCS (Life Technologies, USA).
# (§2) The cell growth inhibitory activities on human hepatocellular carcinoma cells were examined by the MTT (3-(4,5-dimethylthiazol–2-yl)-2,5-diphenyl tetrazolium bromide). About 3.5 × 10^4 cells per well were seeded into 96-well plates for 24 h. HepG2/STAT3 cells were then treated with vehicle control (DMSO) or 2-ethoxystypandrone (1) at indicated concentrations (0.016, 0.08, 0.4, 2, 10, 50, 100 μM) for 6.5 h. HCC Huh-7, Li-7, SK-HEP-1, HepG3B, and HepG2 cells were treated with 2-ethoxystypandrone (1) at indicated concentrations for 72 h. The assay was carried out by adding a MTT solution (20 μL, 5 mg/mL; Sigma Chemical Co.) to each well and incubating for 3 h at 37 °C to form MTT-formazan crystals by metabolically viable cells. The supernatant was aspirated, and the MTT-formazan crystals were dissolved in DMSO (150 μL). The absorbance was measured by a microplate reader (BioTek Instruments, USA) at a wavelength of 492/620 nm.
# HepG2 cells = test: MTT cell viability assay, HepG2; format: cell-based; details: Homo sapiens, HepG2, 72 h, read-out: IC50, cell growth/viability
# Protocol: as §1, §2
# [3] = tested on: HCC CSCs isolated from HCC Huh-7 cells; test: Tumorsphere formation assay; format: cell-based, human; details: 72 h
# Protocol: (§3) HCC cancer stem cells were isolated from HCC Huh-7 cell line by serum-free cancer stem cell culture selection. The Huh-7 cells were collected and washed to remove serum, then suspended and plated in cancer stem cell conditioned culture medium (CSC medium) supplemented with 100 IU/ML pennicillin and 100 μg/ml streptomycin. CSC medium used for sustaining cancer stemness was serum-free DMEM/F12 containing 10 ng/ml basic fibroblast growth factor (bFGF), 20 ng/ml epidermal growth factor (EGF), 4 μg/ml heparin, 100 μg/ml apotransferrin, 25 μg/ml insulin, 9.6 μg/ml putrescin, 20 nM progesterone, 30 nM sodium selenite anhydrous, and 4 mg/ml bovine serum albumin. […]
# To propagate the tumorspheres in vitro, spheres were collected by gentle centrifugation, dissociated with 0.005% trypsin-EDTA for 2 min, then added CSC medium and mechanically dissociated with a pipette to single cells. […] The dissociated single sphere-forming cells were diluted to a density of 1000 cells/ml, Then, the 1ml/well diluted cell suspension was plated to ultra-low attachment 12 wells plate and treated with indicated concentrations (0, 0.5, 1, 2, 3, 5, 8 and 10 μM) of compound 2-ethoxystypandrone for 72 h, the tumorspheres were photographed under an inverted microscope (Leica DMi8, Germany) and the tumorspheres larger than 50 μm in diameter were counted using ImageJ 1.45.
# HCC CSCs [4] = test: Annexin V flow cytometry apoptosis, HCC CSCs; format: cell-based, human
# Protocol: as §3
# For analysis the apoptosis of HCC CSCs, the suspended tumorspheres were harvested and dissociated mechanically into single cells with 0.005% trypsin-EDTA for 2 min and the dissociated cells were re-seeded with CSC medium and treated with indicated concentrations (0, 5, 8, and 10 μM) of 2-ethoxystypandrone (1) for 24 h. The cells were harvested and then treated with FITC Annexin V apoptosis detection kit I (BD Biosciences Pharmingen, USA) according to the manufacturer’s protocol respectively and the samples were immediately then analyzed by flow cytometry (BD Canto II, USA). […]
# [5] = tested on: STAT3 tyrosine phosphorylation (Tyrosine 705) in HepG2/STAT3 cells; test: Western blot, IL-6-induced STAT3 tyrosine phosphorylation; format: cell-based, human; details: 2 h pretreatment 2-100 μM, IL-6 15 min
# Protocol: Expression of STAT3 and p-STAT3 proteins was analyzed by Western Blot analysis described in previous report. HepG2/STAT3 cells or HepG2 cells were grown to 70–80% confluency and then pre-treated with 2-ethoxystypandrone (1) at different concentrations (0, 2, 10, 50,100 μM) for 2 h. The cells were stimulated with IL-6 for 15 min (the phosphorylation of STAT3 appeared in the 15 min) and then lysed in Laemmli sample buffer and boiled for 5 min. Proteins were then separated by 8% SDS-PAGE and transferred to nitrocellulose membranes. Membranes were blocked in TBS containing 5% nonfat milk 0.1% and Tween 20 (TBST) for 1 h at room temperature and then incubated for 2 h in TBST containing primary antibodies and 5% bovine serum albumin. After being washed with TBST, membranes were then incubated with horseradish peroxidase-conjugated goat anti-mouse IgG (H + L) secondary antibody (#GAM007, MultiSciences) for 1 h, and finally immune complexes were detected by enhanced chemiluminescence. Primary antibodies used in Western blot were mouse anti-STAT3 (#9139,CST), mouse anti-pY-STAT3 (Tyrosine 705, #9138, CST), and mouse anti-α-tubulin (#sc5286, Santa Cruz).
# [6] = tested on: HepG2/STAT3-luciferase cells; test: MTT cell viability assay, HepG2/STAT3-luciferase cells 6.5 h; format: cell-based, human; details: 0.016-100 μM
# Protocol: as §2
# Huh-7 cells [7] = test: Annexin V/PI flow cytometry apoptosis, Huh-7; format: cell-based, human; details: Huh-7, 8 μM, 24 h
# Protocol: Huh-7 cells were grown to 70–80% confluence and then treated with various concentrations (0, 2, 4, and 8 μM) of 2-ethoxystypandrone (1) for 24 h. The cells were harvested and […]. The cells were then treated with FITC Annexin V apoptosis detection kit I (BD Biosciences Pharmingen) according to the manufacturer’s protocol and the samples were immediately then analyzed by flow cytometry (BD Canto II, USA). The percentage of cells undergoing apoptosis was calculated with CELLQuest 3.0 software. The dots in the lower left quadrant, upper left quadrant, upper right quadrant, and lower right quadrant represent the viable cells, the damages cells, the cells in late apoptosis and the cells in early apoptosis, respectively.
# HepG3B cells = test: MTT cell viability assay, HepG3B; format: cell-based; details: Homo sapiens, 72 h, read-out: IC50, cell growth/viability
# Protocol: as §1, §2
# [8] = tested on: human HCC cell lines (Huh-7, Li-7, SK-HEP-1, HepG3B, and HepG2); test: MTT cell viability assay, panel of human HCC cell lines; format: cell-based; details: five HCC cell lines, 72 h, read-out: IC50 range over tested HCC cells
# Protocol: as §1, §2
# HCC CSCs [9] = test: PI flow cytometry cell cycle distribution, HCC CSCs; format: cell-based, human; details: 10 μM, 24 h
# Protocol: HCC cancer stem cells were isolated from HCC Huh-7 cell line by serum-free cancer stem cell culture selection. The Huh-7 cells were collected and washed to remove serum, then suspended and plated in cancer stem cell conditioned culture medium (CSC medium) supplemented with 100 IU/ML pennicillin and 100 μg/ml streptomycin. CSC medium used for sustaining cancer stemness was serum-free DMEM/F12 containing 10 ng/ml basic fibroblast growth factor (bFGF), 20 ng/ml epidermal growth factor (EGF), 4 μg/ml heparin, 100 μg/ml apotransferrin, 25 μg/ml insulin, 9.6 μg/ml putrescin, 20 nM progesterone, 30 nM sodium selenite anhydrous, and 4 mg/ml bovine serum albumin. The Huh-7 cells were subsequently cultured in ultra-low attachment 6-well plates at a density of 5000 cells/well, half volume of the flesh medium was exchanged every second day. After 10–14 days of culture, the most Huh-7 cells died and the cells grew up as nonadherent, three-dimensional sphere clusters.
# For analysis the apoptosis of HCC CSCs, the suspended tumorspheres were harvested and dissociated mechanically into single cells with 0.005% trypsin-EDTA for 2 min and the dissociated cells were re-seeded with CSC medium and treated with indicated concentrations (0, 5, 8, and 10 μM) of 2-ethoxystypandrone (1) for 24 h. The cells were harvested and then treated with FITC Annexin V apoptosis detection kit I (BD Biosciences Pharmingen, USA) according to the manufacturer’s protocol respectively and the samples were immediately then analyzed by flow cytometry (BD Canto II, USA). […] After washing the cells with pre-cooled PBS twice, the cells were then treated with Propidium iodide (PI)/RNase Staining Buffer (BD Biosciences Pharmingen, USA) according to the manufacturer’s protocol respectively and the samples were immediately then analyzed by flow cytometry (BD Canto II,USA).
# Huh-7 cells [10] = test: MTT cell viability assay, Huh-7; format: cell-based; details: Homo sapiens, Huh-7, 72 h, read-out: IC50, cell growth/viability
# Protocol: as §1, §2
# SK-HEP-1 cells = test: MTT cell viability assay, SK-HEP-1; format: cell-based; details: Homo sapiens, SK-HEP1, SK-HEP-1, 72 h, read-out: IC50, cell growth/viability
# Protocol: as §1, §2
compound,measurement,setting,value
"COC1=CC(=O)c2c(cc(C)c(C(C)=O)c2O)C1=O [2-methoxystypandrone, 2-methoxy-6-acetyl-7-methyl-juglone]",IC50,[1],17.2 ± 0.21 µM
"CC(C)(C)c1nc2c3cc[nH]c(=O)c3c3cc(F)ccc3c2[nH]1 [pyridone 6, reference compound]",IC50,[2],0.02 ± 0.001 µM
"O=C(OC1Cc2c(O)cc(O)cc2OC1c1ccc(O)c(O)c1)c1cc(O)c(O)c(O)c1 (stereo not drawn) [compound 7, catechin-3-O-gallate]",IC50,[2]; Homo sapiens,> 100 µM
"OC[C@H]1O[C@@H](Oc2cc(O)cc(/C=C/c3ccc(O)cc3)c2)[C@H](O)[C@@H](O)[C@@H]1O [compound 6, polydatin]",IC50,[2]; Homo sapiens,> 100 µM
"O=C1COc2cc(O)cc(O)c21 [compound 3, 4,6-dihydroxybenzofuran-3-one]",IC50,[2]; Homo sapiens,> 100 µM
"CCOC1=CC(=O)c2c(cc(C)c(C(C)=O)c2O)C1=O [compound 1, 2-ethoxy-6-acetyl-7-methyl-juglone]",IC50,Li-7 cells,5.58 ± 0.89 µM
same,IC50,HepG2 cells,20.4 ± 2.9 µM
same,self-renewal and tumorsphere formation vs control,[3]; 2 μM,significantly blocked self-renewal and the tumorsphere formation
same,IC50,"[3]; Homo sapiens, Huh-7, HCC CSCs, spheres larger than 50 μm counted",2.7 ± 0.28 µM
same,percentage of apoptotic cells,"HCC CSCs [4]; 10 μM, 24 h",41.2 ± 4.3%
same,early apoptotic cells,HCC CSCs [4]; 24 h (text; 10 μM per Fig. 5a),38.2 ± 4.2%
same,IL-6-induced STAT3 tyrosine phosphorylation,[5],inhibit the IL-6-induced STAT3 tyrosine phosphorylation in a dose-dependent manner
same,cell viability,[6],not completely dead
same,total apoptosis,Huh-7 cells [7],88.6 ± 1.4%
same,IC50,[2]; Homo sapiens,7.75 ± 0.18 µM
same,increased potency against STAT3 signaling compared with 2-methoxystypandrone,[2]; ratio of IC50 values,2 fold
same,IC50,HepG3B cells,16.7 ± 0.58 µM
same,IC50,[8],3.69 to 20.4 µM
same,cells in G0/G1,HCC CSCs [9],37.53 ± 1.32%
same,cells in G2/M phase,HCC CSCs [9],18.5 ± 0.36%
same,cells in S phase,HCC CSCs [9],43.96 ± 1.07%
same,IC50,Huh-7 cells [10],3.69 ± 0.51 µM
same,IC50,SK-HEP-1 cells,8.78 µM
"O=C(OC1C(Oc2cc(O)cc(C=Cc3ccc(O)cc3)c2)OC(CO)C(O)C1O)c1cc(O)c(O)c(O)c1 (stereo not drawn) [compound 5, polydatin-2′-O-gallate]",IC50,[2]; Homo sapiens,> 100 µM
